Where two headings read alike, the source gives them in different places.
Key:
[1] = cited from earlier work
[2] = Stability of CBDA and CBD in inclusion complexes of Eletta Campana CS inflorescence and HP-β-CD in water, HPLC-UV; type: physicochemical; settings: for cannabinoid concentration: HP-β-CD aqueous extract
Method: The official method reported in the German Pharmacopoeia of Cannabis Flos (https://www.MonographCannabisFlos.pdf) comprises three extraction and filtering cycles of 500 mg of inflorescence with 20, 12.5 and 12.5 mL of ethanol 96% respectively. The ethanol liquid phase was brought to a volume of 50 mL in a volumetric flask with clean 96% ethanol. Said extract was filtered on a regenerated cellulose filter with pore diameter 0.45 μm. A 1 mL portion was diluted with 9 mL of 96% ethanol for chromatographic analysis. For each cannabinoid a calibration curve was constructed for the quantification thereof within the extracts and in the aqueous formulations of the inclusion complexes with the inflorescence. The calibration curve was constructed with certified standards (Cerilliant Cannabinoid Reference Standards, Cerilliant Corporation, Texas, USA) in a concentration range of 0.25-1.00 μg/mL. The titrations were performed following the method published by Citti et al. [Citti et al., Journal of Pharmaceutical and Biomedical Analysis 2016, 128, 201-209] with the use of high-performance liquid chromatography coupled with a UV detector (HPLC-UV).
After filtering, both the solutions were then transferred to an amber-colored closed container. One container was kept at ambient temperature (25° C.) in the dark and the other in the refrigerator at 8° C. The concentration of the cannabinoids, in the particular example of CBDA and CBD, was measured at different times to verify the stability thereof, analyzing a portion by HPLC-UV. […] The percentage CBDA concentration difference with reference to time 0 is indicated in brackets.

[3] = cited from earlier work; remark: listed apart in the source

2-Hydroxypropyl-γ-cyclodextrin
Solubility in pure water (mg/ml) at approx. 25° C. [1]: >500 mg/mL

2-hydroxypropyl-β-cyclodextrin
Solubility in pure water (mg/ml) at approx. 25° C. [1]: >600 mg/mL

C=C(C)[C@@H]1CCC(C)=C[C@H]1c1c(O)cc(CCCCC)cc1O [CBD, 2-[(1R,6R)-3-methyl-6-(prop-1-en-2-yl)cyclohex-2-enyl]-5-pentylbenzene-1,3-diol, reference compound]
cannabinoid concentration ([2]; 8° C., 0 days): 0.16 µg/mL | cannabinoid concentration ([2]; 8° C., 14 days): 0.12 µg/mL | cannabinoid concentration ([2]; 8° C., 45 days): 0.17 µg/mL | cannabinoid concentration ([2]; 8° C., 60 days): 0.14 µg/mL | cannabinoid concentration ([2]; 8° C., 100 days): 0.17 µg/mL | cannabinoid concentration ([2]; 25° C. in the dark, 0 days): 0.14 µg/mL | cannabinoid concentration ([2]; 25° C. in the dark, 14 days): 0.56 µg/mL | cannabinoid concentration ([2]; 25° C. in the dark, 45 days): 0.78 µg/mL | cannabinoid concentration ([2]; 25° C. in the dark, 60 days): 1.10 µg/mL | cannabinoid concentration ([2]; 25° C. in the dark, 100 days): 2.93 µg/mL | stability of the formulation (in words) ([2]; formulation kept at 8° C., 100 days): remain surprisingly stable | drop of concentration in water ([3]; infusion without CD, 25° C., period of 7 days): 60% | drop of concentration in water ([3]; tisane without CD kept at 4° C., 7 days): 50%

C=C(C)[C@@H]1CCC(C)=C[C@H]1c1c(O)cc(CCCCC)c(C(=O)O)c1O [CBDA, 2,4-Dihydroxy-3-[(1R,6R)-3-methyl-6-(1-methylethenyl)-2-cyclohexen-1-yl]-6-pentylbenzoic acid]
stability of the formulation (in words) [2]: loss (albeit very slow | percentage CBDA concentration difference with reference to time 0 ([2]; 8° C., 14 days): +1.8% | percentage CBDA concentration difference with reference to time 0 ([2]; 8° C., 45 days): +1.4% | percentage CBDA concentration difference with reference to time 0 ([2]; 8° C., 60 days): +0.6% | percentage CBDA concentration difference with reference to time 0 ([2]; 8° C., 100 days): +1.4% | percentage CBDA concentration difference with reference to time 0 ([2]; 25° C., 14 days): −9.9% | percentage CBDA concentration difference with reference to time 0 ([2]; 25° C., 45 days): −30.7% | percentage CBDA concentration difference with reference to time 0 ([2]; 25° C., 60 days): −47.6% | percentage CBDA concentration difference with reference to time 0 ([2]; 25° C., 100 days): −50.1% | cannabinoid concentration ([2]; 8° C., 0 days): 6.81 µg/mL | cannabinoid concentration ([2]; 8° C., 14 days): 6.94 µg/mL | cannabinoid concentration ([2]; 8° C., 45 days): 6.91 µg/mL | cannabinoid concentration ([2]; 8° C., 60 days): 6.86 µg/mL | cannabinoid concentration ([2]; 8° C., 100 days): 6.91 µg/mL | cannabinoid concentration ([2]; 25° C. in the dark, 0 days): 6.45 µg/mL | cannabinoid concentration ([2]; 25° C. in the dark, 14 days): 5.81 µg/mL | cannabinoid concentration ([2]; 25° C. in the dark, 45 days): 4.47 µg/mL | cannabinoid concentration ([2]; 25° C. in the dark, 60 days): 3.38 µg/mL | cannabinoid concentration ([2]; 25° C. in the dark, 100 days): 3.21 µg/mL | time beyond which stability in water is not guaranteed ([3]; infusion without CD, both at 25° C. and at 4° C.): ≤ 14 days

Randomly methylated β-Cyclodextrin
Solubility in pure water (mg/ml) at approx. 25° C. [1]: >500 mg/mL

Sodium salt of β-CD sulfobutyl ether
Solubility in pure water (mg/ml) at approx. 25° C. [1]: >500 mg/mL

From US12491452B2, “Extraction method and composition obtained therefrom” (NATURALIA INGREDIENTS S.R.L., priority 2018, dated 2025)
